The text below walks through data of patent US7034159B2, “Pharmaceutical compositions comprising 1-isopropyl-3-[(4-m-toluidino-3-pyridyl)sulphonyl]-urea as active ingredient” (Cosma S.p.A., priority 2002, dated 2006).

Where two headings read alike, the source gives them in different places.

Data set [1] in a line: Accelerated ICH stability test with pure solid form II, polymorphic transformation followed by FT-IR in KBr. The format is physicochemical. The following applies: 40°±2C and 75±5% relative humidity, over 6 months. An excerpt:
For detectable polymorphic transformations is intended transformations visible from changes of the FT-IR spectrum of form II of torsemide registered in KBr. Specifically, the formation of a contamination of 1% or greater (by weight) of form I of torsemide in a sample of pure form II of torsemide would be a detectable polymorphic transformation by means of the relative change of the FT-IR spectrum registered in KBr which would imply the appearance of a peak in the position at 1697 cm^−1. Accelerated Test with Pure Solid Form II at 40°±2C and 75±5% of Relative Humidity. This type of test which is prescribed according to ICH (Q1A, “Stability testing of new Drug Substances and new Drug Products”, 1st edition Oct. 27, 1997 and 2nd edition Nov. 8, 2000) allows, according to internationally recognised procedures, to extrapolate the results obtained with this accelerated test to a mock storage period at room temperature for over 2 years. The inventors of the present patent application have subjected a series of pure samples of form II of torsemide to this test, and have assayed with the frequency and to the prescribed terms, the possible polymorphic transformations of the samples through registration of the FT-IR spectra in KBr on a Jasco apparatus.

The nature of data set [2]: Transformation of form II suspended in water (strong heating or prolonged treatment). The class given is physicochemical. The following applies: suspended in water and strongly heated, or suspended in water and subjected to prolonged treatment. An excerpt:
27, 1997 and 2nd edition Nov. 8, 2000) and recognised on the world scale for the evaluation of the stability of pharmaceutical substances.
Form I of torsemide is obtainable from form II of torsemide as above according to the instructions of Kondo, namely by suspension of an aliquot of form II in water (approx. 23 parts by weight) and subsequent stirring for 20 days at room temperature. The melting point of form I of torsemide, used by the inventors of the present patent application, measured with a Büchi B-540 according to USP class 1a (temperature increments of 1° C.±0.5° C./min starting from 10° C. from the expected melting point, inserting the sample at 5° C. from the melting point, then 1° C.±0.5° C./min until reaching the melting point), is 160.1°–160.5° C.

Data set [3] can be described thus: Drastic test with pure solid form II at 80° C. for two days in the absence of light. The class given is physicochemical. Here is the method:
Drastic Test with Pure Solid Form II at 80° C. for Two Days (Carried Out in the Absence of Light).

Data set [4] in a line: Prolonged ICH stability test with pure solid form II, polymorphic transformation followed by FT-IR in KBr. The format is physicochemical. The following applies: 25°±2C and 60±5% relative humidity, after 13 months. Here is the method:
Prolonged Test with Pure Solid Form II at 25°±2C and 60±5% of Relative Humidity. This type of test which is prescribed according to ICH (Q1A, “Stability testing of new Drug Substances and new Drug Products”, 1st edition Oct. 27, 1997 and 2nd edition Nov. 8, 2000) follows possible degradation of the samples under more mild conditions, but over prolonged periods. The inventors of the present patent application have subjected a series of pure samples of form II of torsemide to this test, and have assayed with the frequency and to the prescribed terms, the possible polymorphic transformations of the samples through the registration of the FT-IR spectra in KBr on the Jasco apparatus.

For data set [5] the following is noted: Kondo et al. 1994, susceptibility to humidity/water, cited from earlier work.

Consider `Cc1cccc(Nc2ccncc2S(=O)(=O)NC(=O)NC(C)C)c1` [form II of torsemide, 1-isopropyl-3-[(4-m-toluidino-3-pyridyl)sulphonyl]-urea], for which the “polymorphic transformation (FT-IR in KBr, Jasco)” value in data set [1] is listed as “no detectable polymorphic transformation”; in data set [4], “could not see any detectable polymorphic transformation”. Also, in data set [2], the “polymorphic transformation in aqueous suspension” value is “transforms into form I”. For the same molecule, in data set [3], the polymorphic transformation result is “does not show a detectable polymorphic transformation”. Besides, in data set [5] (listed as form II), the “relative stability of the polymorphic form” value is reported as “poorly stable”.

On to `Cc1cccc(Nc2ccncc2S(=O)(=O)NC(=O)NC(C)C)c1` [form I, 1-isopropyl-3-[(4-m-toluidino-3-pyridyl)sulphonyl]-urea], for which the “relative stability of the polymorphic form” value in data set [5] is “sufficiently stable”.
